BindingDB's records for doi:10.1021/np8001628 (University of Utah, 2008)
Where a name gives a salt, the structure may show the parent alone.

These molecules were tested against Transcription factor p65 (Human, UniProt Q04206) (assay: Inhibition of IL1-induced NF-kappaB P65 activation in human osteoarthritic primary chondrocytes preincubated 2 hrs before addition of IL1 by ELISA).
Sequence of Transcription factor p65 (Q04206 whole entry): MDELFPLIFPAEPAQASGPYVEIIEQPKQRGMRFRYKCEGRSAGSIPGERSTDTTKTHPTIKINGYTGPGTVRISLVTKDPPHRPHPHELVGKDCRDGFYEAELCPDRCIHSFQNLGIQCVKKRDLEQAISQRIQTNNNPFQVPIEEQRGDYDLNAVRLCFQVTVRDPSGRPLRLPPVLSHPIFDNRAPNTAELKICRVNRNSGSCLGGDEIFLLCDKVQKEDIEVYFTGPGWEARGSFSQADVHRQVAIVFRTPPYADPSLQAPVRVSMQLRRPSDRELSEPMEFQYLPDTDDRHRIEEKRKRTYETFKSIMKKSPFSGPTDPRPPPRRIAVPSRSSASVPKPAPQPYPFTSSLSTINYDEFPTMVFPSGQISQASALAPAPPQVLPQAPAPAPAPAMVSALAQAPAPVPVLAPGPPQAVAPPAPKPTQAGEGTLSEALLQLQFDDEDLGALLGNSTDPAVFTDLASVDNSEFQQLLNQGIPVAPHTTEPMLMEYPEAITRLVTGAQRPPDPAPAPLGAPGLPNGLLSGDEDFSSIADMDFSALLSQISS

| EC50 | Compound |
| --- | --- |
| 12 µM | C=C(C)C(CC)CC[C@@H](C)[C@H]1CC[C@@]2(C)[C@@H]3C[C@H](OS(=O)(=O)O)[C@H]4[C@@H](O)[C@H](OS(=O)(=O)O)[C@@H](OS(=O)(=O)O)C[C@]4(C)C3=CC[C@]12C (some centres undefined) [Spheciosterol sulfate A] |
| 12 µM | C=C(C)C(CC[C@@H](C)[C@H]1CC[C@@]2(C)[C@@H]3C[C@H](OS(=O)(=O)O)[C@H]4[C@@H](O)[C@H](OS(=O)(=O)O)[C@@H](OS(=O)(=O)O)C[C@]4(C)C3=CC[C@]12C)C(C)C (some centres undefined) [Spheciosterol sulfate B] |
| 12 µM | C=C(C)C(C)(C)C(C)CC[C@@H](C)[C@H]1CC[C@@]2(C)[C@@H]3C[C@H](OS(=O)(=O)O)[C@H]4[C@@H](O)[C@H](OS(=O)(=O)O)[C@@H](OS(=O)(=O)O)C[C@]4(C)C3=CC[C@]12C (some centres undefined) [Spheciosterol sulfate C] |
| 12 µM | CC(C)C1(CC[C@@H](C)[C@H]2CC[C@@]3(C)[C@@H]4C[C@H](OS(=O)(=O)O)[C@H]5[C@@H](O)[C@H](OS(=O)(=O)O)[C@@H](OS(=O)(=O)O)C[C@]5(C)C4=CC[C@]23C)CC1C (some centres undefined) [Topsentiasterol sulfate E] |
